Assay results published in US11241374B2, “Compositions and methods for treating skin conditions using light and glucosamine hydrochloride” (Johnson & Johnson Consumer Inc., priority 2018, dated 2022).
Entries after “also recorded” stand apart in the source; their conditions may differ.

Tested on: Human dermal fibroblasts
Experiment: Hyaluronic acid (HA) secretion by human dermal fibroblasts, Hyaluronan ELISA of culture media
Assay type: cell-based
Conditions: for Synergy of active with red and/or near infrared light in hyaluronic acid production: combination of active and light versus light alone; for Fold Change versus treatment with light alone: net HA
Protocol: Human dermal fibroblasts are maintained in flask in growth medium consisting of Dulbeccos' Modified Eagle Medium (DMEM) plus 10% fetal bovine serum, 50 units/ml penicillin and 50 μg/ml streptomycin. Cells are seeded at 10,000 cells per well in a 96 well plate in phenol-red-free Dulbeccos' Modified Eagle Medium (DMEM) plus 2% fetal bovine serum, 50 units/ml penicillin and 50 μg/ml streptomycin for 24 hours before the treatments. Glucosamine HCl or other actives were dissolved in 1×PBS at 10% stock and added into the medium at various concentrations for 48 hours. Culture media is collected at 48 hours post-treatment, and measured for HA (Hyaluronic acid) secretion using Hyaluronan ELISA kit (Echelon, cat. #K-1200) following the manufacturer protocol. To assess activity, the colorimetric chance is measured at 405 nm. The net HA secretion of each tested treatment is calculated by the amount of the HA secretion from each respective individual treatment minus the amount of the HA secretion from the untreated treatment. Then, the fold increase provided by the combination of the treatments by light+active is calculated as the fold change in net HA secreted from the application of the combined light plus active treatment divided by the net HA secreted from the treatment by light alone. […]

[1] = 0.02% active alone in cell media, no light, 48 hours
[2] = Red (633 nm) + NIR (830 nm) light 0.3 J/cm^2 each + 0.02% active
[3] = Red + NIR light 0.3 J/cm^2 each + 0.02% active
[4] = Red + NIR light 0.3 J/cm^2 each + 0.2% active
[5] = Red + NIR light 3 J/cm^2 each + 0.02% active
[6] = Red + NIR light 3 J/cm^2 each + 0.2% active

| SMILES | HA concentrations [1] [ng/mL] | Change in HA concentration over Untreated (0.02% active alone, no light) [ng/mL] | HA concentrations [2] [ng/mL] | Change in HA concentration over Untreated [3] | Fold Change versus treatment with light alone [3] | Synergy of active with red and/or near infrared light in hyaluronic acid production | further results |
| --- | --- | --- | --- | --- | --- | --- | --- |
| Cl.N[C@H]1C(O)O[C@H](CO)[C@@H](O)[C@@H]1O (some centres unmarked) [Glucosamine HCl, glucosamine hydrochloride] | 543 | -8 | 2489 | +1938 ng/ml | 2.25 | – | HA concentrations (0.2% active alone in cell media, no light, 48 hours): 999 ng/mL; Change in HA concentration over Untreated (0.2% active alone, no light): +448 ng/ml; HA concentrations (Red (633 nm) + NIR (830 nm) light 0.3 J/cm^2 each + 0.2% active): 2260 ng/mL; HA concentrations (Red (633 nm) + NIR (830 nm) light 3 J/cm^2 each + 0.02% active): 4379 ng/mL; HA concentrations (Red (633 nm) + NIR (830 nm) light 3 J/cm^2 each + 0.2% active): 3873 ng/mL; Change in HA concentration over Untreated [4]: +1709 ng/ml; Change in HA concentration over Untreated [5]: +3828 ng/ml; Change in HA concentration over Untreated [6]: +3322 ng/ml; Synergy of active with red and/or near infrared light in hyaluronic acid production (listed as glucosamine HCl, hydrochloride): synergistically increased the hyaluronic acid secretion; Synergy of active with red and/or near infrared light in hyaluronic acid production (listed as glucosamine hydrochloride, hydrochloride): synergistically increases hyaluronic acid production; Fold Change versus treatment with light alone [4]: 1.98; Fold Change versus treatment with light alone [5]: 2.99; Fold Change versus treatment with light alone [6]: 2.60 |
| N[C@H]1C(O)O[C@H](CO)[C@@H](O)[C@@H]1O.O=P(O)(O)O (some centres unmarked) [Glucosamine phosphate, reference compound] | 689 | -51 | 1037 | 297 ng/mL | 0.36 | – | Synergy of active with red and/or near infrared light in hyaluronic acid production (listed as glucosamine phosphate, phosphate): not observed; Synergy of active with red and/or near infrared light in hyaluronic acid production (phosphate): No synergy was observed |
| CC(=O)N[C@H]1C(O)O[C@H](CO)[C@@H](O)[C@@H]1O (some centres unmarked) [N-acetyl Glucosamine, N-acetyl glucosamine, reference compound] | 735 | -125 | 1878 | 1018 ng/mL | 1.1 | No synergy was observed; also recorded: not observed | – |
| N[C@H]1C(O)O[C@H](CO)[C@@H](O)[C@@H]1O (some centres unmarked) [glucosamine] | – | – | – | – | – | not observed | – |
